Among the test systems are SN12C renal; UACC-62 melanoma; COLO 205 colon; M14 melanoma; UACC-257 melanoma; HS 578T breast; BT-549 breast; SK-MEL-2 melanoma; A498 renal; HL-60(TB) leukemia.
Assay in all cases: growth of human tumour cells (NCI), 48 h

Consider twelve compounds from PubChem BioAssay (NCI).

Values joined by “and” are separate entries in the source; they are usually repeats but may differ in a detail not shown here. Equal values may be shown once.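 Values below derive from 48-hour exposures of cells grown in 96-well plates, with endpoints linearly interpolated between the two concentrations bracketing the appropriate inhibition level. GI50 = concentration required for 50% inhibition of growth. At the TGI there is no net growth.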

As to `O=C1/C(=C/c2ccc3c(c2)OCO3)Sc2scc(-c3ccc(O)c(O)c3)[n+]21`, the TGI was 4.7 µM in the experiment with SN12C renal; 8.28 µM in the experiment on UACC-62 melanoma; greater than 19.7 µM in the experiment on COLO 205 colon; 13.3 µM with M14 melanoma; 9.35 µM with UACC-257 melanoma; 72.6 µM in the experiment with HS 578T breast. Also, the TGI came to 6.13 µM in the experiment on BT-549 breast and 24.8 µM in the experiment with SK-MEL-2 melanoma.

Turning to `O=C1CSc2sc(=S)sc2S1`, the TGI was greater than 100 µM in the experiment with SN12C renal; greater than 100 µM in the experiment with UACC-62 melanoma; greater than 100 µM with COLO 205 colon; greater than 100 µM in the experiment on UACC-257 melanoma; greater than 78.6 µM with A498 renal; greater than 100 µM in the experiment on SK-MEL-2 melanoma. In the experiment with HL-60(TB) leukemia, this compound yielded a TGI greater than 100 µM.

As for `CCc1cccc(C(C)C)c1NC1=C([n+]2ccc(C)cc2)C(=O)c2ccccc2C1=O`, the TGI in the experiment with SN12C renal is 8.35 µM; in the experiment on UACC-62 melanoma it was 4.22 µM; in the experiment on COLO 205 colon, 2.57 µM; with M14 melanoma, 3.16 µM; in the experiment on UACC-257 melanoma it was 4.45 µM; in the experiment with HS 578T breast, greater than 100 µM. The TGI was determined as 8.79 µM in the experiment on A498 renal, 28.9 µM in the experiment on SK-MEL-2 melanoma and 9.29 µM in the experiment with HL-60(TB) leukemia.

As to `NS(=O)(=O)c1ccc(N=Nc2ccc(O)c(O)c2)cc1`, the TGI in the experiment on SN12C renal is 44.9 µM; in the experiment with COLO 205 colon, 40.3 µM; with M14 melanoma, 65.2 µM; in the experiment on UACC-257 melanoma, 66.6 µM; with HS 578T breast, 67.3 µM; with A498 renal, greater than 100 µM. Moreover, the TGI in the experiment with BT-549 breast was 14.4 µM; in the experiment with SK-MEL-2 melanoma, 34 µM; in the experiment with HL-60(TB) leukemia, 86.9 µM.

Consider `O=NN(CCCl)C(=O)Nc1ccc(Cl)c(Cl)c1`, for which the TGI in the experiment on SN12C renal, in the experiment on UACC-62 melanoma, in the experiment on COLO 205 colon, in the experiment on UACC-257 melanoma, in the experiment on A498 renal and in the experiment with SK-MEL-2 melanoma was greater than 100 µM each time. In addition, the TGI with HL-60(TB) leukemia is greater than 100 µM.

On to `OCCSCc1cc(Cl)cc(Cl)c1O`, for which the TGI in the experiment with SN12C renal, in the experiment on UACC-62 melanoma, with COLO 205 colon, with M14 melanoma, in the experiment on UACC-257 melanoma and with HS 578T breast was greater than 100 µM each time. For the same compound, the TGI in the experiment on A498 renal and with BT-549 breast was greater than 100 µM throughout.

For `Nc1nccc2c1ncn2C1C=C(CO)C(O)C1O` (stereo unspecified), the GI50 was 0.351 µM with SN12C renal; 6.88 µM in the experiment on UACC-62 melanoma; 7.35 µM with COLO 205 colon; 7.18 µM with M14 melanoma; 3.28 µM in the experiment with UACC-257 melanoma; 0.337 µM in the experiment on HL-60(TB) leukemia. The TGI with SN12C renal was greater than 1000 µM; with UACC-62 melanoma it was greater than 1000 µM; in the experiment on COLO 205 colon, greater than 1000 µM; in the experiment with M14 melanoma it was greater than 1000 µM; with UACC-257 melanoma, greater than 1000 µM; in the experiment with SK-MEL-2 melanoma, 99.1 µM. The TGI in the experiment with HL-60(TB) leukemia is greater than 1000 µM.

On to `COc1cc(CCC(=O)O)c2cc3ccccc3cc2c1O`, for which the TGI with SN12C renal was 31.7 µM; in the experiment with UACC-62 melanoma, 37.7 µM; with COLO 205 colon, 36.2 µM; in the experiment on M14 melanoma, 42.6 µM; in the experiment with UACC-257 melanoma, 31 µM; in the experiment with HS 578T breast, greater than 100 µM. Also, the TGI with A498 renal was determined as 99.5 µM; in the experiment on BT-549 breast, 30.9 µM; in the experiment on SK-MEL-2 melanoma, 36.6 µM; in the experiment with HL-60(TB) leukemia, 39.1 µM.

For the compound `Cc1cc(O)c2cc3c(O)c(O)ccc3cc2c1`, the TGI in the experiment with SN12C renal came to 17.3 µM; in the experiment on UACC-62 melanoma, 22.6 µM; in the experiment on COLO 205 colon, 1.46 µM; in the experiment with M14 melanoma it was 20 µM; with UACC-257 melanoma it was 13.5 µM; with HS 578T breast, 6.22 µM. The TGI with A498 renal was 16.1 µM; with BT-549 breast it was greater than 44.3 µM; in the experiment with SK-MEL-2 melanoma, 3.22 µM; with HL-60(TB) leukemia it was 4.16 µM.

With `Cc1ccc(NC(=O)CC(=O)n2nc(-c3ccccc3)c(N=Nc3ccccc3C(=O)O)c2-c2ccccc2)cc1`, the TGI in the experiment with SN12C renal, with UACC-62 melanoma, in the experiment on COLO 205 colon and in the experiment with SK-MEL-2 melanoma was greater than 100 µM throughout.

Take `COc1cccc2c1C(=O)c1c(O)c3c(c(O)c1C2=O)C[C@@](O)(C(C)=O)C[C@@H]3OC1CC(N(C)C)C(O)C(C)O1` (stereo partly specified): the GI50 in the experiment with SN12C renal was 0.0164 µM; in the experiment on UACC-62 melanoma, 0.0372 µM and < 0.0115 µM; in the experiment with COLO 205 colon, 0.0133 µM; in the experiment with M14 melanoma, 0.0437 µM; with UACC-257 melanoma it was 0.0435 µM and < 0.0185 µM; in the experiment with A498 renal, 0.139 µM and 0.0466 µM. The GI50 is less than 0.0113 µM in the experiment with SK-MEL-2 melanoma and 0.0402 µM in the experiment on HL-60(TB) leukemia. Further, the TGI with SN12C renal was 2.15 µM and 1.01 µM; in the experiment on HS 578T breast, 0.0011 µM; in the experiment on BT-549 breast it was 0.00562 µM; in the experiment on SK-MEL-2 melanoma, 0.308 µM and 0.0915 µM.

Regarding `O=CN(O)CC(=O)O.[Ni]`, the TGI with SN12C renal, in the experiment on UACC-62 melanoma, in the experiment on COLO 205 colon, in the experiment with M14 melanoma, in the experiment on UACC-257 melanoma and in the experiment with HS 578T breast was greater than 100 µM throughout. Further, the TGI in the experiment with A498 renal, in the experiment with BT-549 breast and in the experiment on HL-60(TB) leukemia was greater than 100 µM throughout.
